One series has as its system CT26 tumor. Put plainly: ATRA-sensitized fractionated radiotherapy in CT26 tumor bearing BALB/c mice. It is filed as in vivo, mouse. To be noted: 6 fractions. As for the experimental part:
2×10^6 CT26 cells were subcutaneously injected into the right flanks of BALB/c mice. When the tumors reached 100-120 mm^3 in volume, ATRA in corn oil (400 μg/each) was daily administrated via oral gavage. After administration, mice were anaesthetized with 2% (v/v) isoflurane and the tumors were irradiated daily with X-ray at a dose of 1 Gy/fraction (225 kVp, 13 mA, 0.3 mm-Cu filter) for a total of 6 fractions on six consecutive days. Oil (equal volume/each) was daily administrated with or without irradiation as a control. The tumor size was measured with a caliper every day and the tumor volume calculated as 0.5×length×width 2. All the mice were sacrificed when the tumors reached about 2000 mm^3.

Another series concerns MC38 cells. Put plainly: Direct cytotoxic/radiosensitizing effect of RA on cultured tumor cells. The format is cell-based, mouse. The settings on record: RA 0 nM to 2000 nM after IR 0 Gy to 15 Gy, three days. As for the experimental part:
To determine whether RA has direct cytotoxic and/or radiosensitizing effects on tumor cells, MC38 cells were cultured with RA (0 nM to 2000 nM) after IR (0 Gy to 15 Gy) for three days. […] Since both IR and RA regulate immune responses, studies were conducted to examine how the combination treatment changes the tumor immune environment. Using a multiplex assay, the level of chemokines and cytokines in tumors three days after treatment was determined. Following IR+RA treatment, increased levels of CCL2, CCL3, CCL4 and CCL5 (by 2-fold to 3-fold compared to levels in any single treatment), which are involved in monocyte recruitment, were observed. GM-CSF, a critical cytokine for DC generation, increased by more than 5-fold in whole tumor homogenates.

Where [1] appears, read: ATRA 400 μg/each oral gavage daily plus X-ray 1 Gy/fraction.

Regarding `CC1=C(/C=C/C(C)=C/C=C/C(C)=C/C(=O)O)C(C)(C)CCC1` [RA, all-trans retinoic acid], in the series with CT26 tumor (setting [1]), the CT26 tumor growth result is reported as “regressed tumor growth” and the “mice totally free of tumors” value was 2 out of 5. For the same molecule, the body weight result in the series on CT26 tumor (ATRA plus X-ray 1 Gy/fraction) is reported as “No weight loss”. For the same molecule, the “tumor cell death in vitro” value in the series with MC38 cells is “no direct effects”.

Values taken from patent publication US20240000741A1, “ALL-TRANS RETINOIC ACID ENHANCES RADIOTHERAPY AND OVERCOMES IMMUNE SUPPRESSION FOR CANCER THERAPY” (The University of Chicago, priority 2022, published 2024).
